In PubChem BioAssay AID256 (DTP/NCI, 2004):
Several values for one entry are separate records, joined by “and”; a condition that tells them apart may be missing. Equal entries are not always repeated. Inconclusive results and toxic doses are left out. Starred links: 1 amine or outer side, 2 acyl side, 3 side chain; linkers in the order of their positions; H or OH if unused. Positions of bridges follow the written chain, without caps; N, C: chain ends. Non-standard residues stand in square brackets, D forms with d. Residues, ends and D or L forms follow the SMILES beside them. Chains are numbered I, II in the order given. Actinocin(1to9) = Cc1c2oc3c(C)ccc(C(=O)[*:2])c3nc-2c(C(=O)[*:1])c(N)c1=O; NMeV = CN[CH](C(=O)O)C(C)C; Sar = CNCC(=O)O

Tested on: CD2F1 mice, L1210 leukemia ip, survival T/C
Experiment: NCI In Vivo Anticancer Drug Screen. Data for tumor model L1210 Leukemia (intraperitoneal) in CD2F1 (CDF1) mice
Details: higher = longer survival
Method in brief: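 Implant tumor; dose compound or vehicle; measure endpoint in both groups; report treated divided by control.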

[1] = endpoint: mean survival time, dose: 50.0 mg/kg/injection, schedule: Q01DX009 (ip), vehicle: saline
[2] = endpoint: mean survival time, dose: 12.5 mg/kg/injection, schedule: Q01DX009 (ip), vehicle: saline
[3] = endpoint: mean survival time, dose: 25.0 mg/kg/injection, schedule: Q01DX009 (ip), vehicle: saline
[4] = endpoint: mean survival time, dose: 100.0 mg/kg/injection, schedule: Q01DX009 (ip), vehicle: saline with Tween-80
[5] = endpoint: mean survival time, dose: 200.0 mg/kg/injection, schedule: Q01DX009 (ip), vehicle: saline with Tween-80
[6] = endpoint: mean survival time, dose: 100.0 mg/kg/injection, schedule: Q04DX003 (ip), vehicle: saline with Tween-80
[7] = endpoint: mean survival time, dose: 400.0 mg/kg/injection, schedule: Q01DX009 (ip), vehicle: saline with Tween-80
[8] = endpoint: mean survival time, dose: 400.0 mg/kg/injection, schedule: Q04DX003 (ip), vehicle: saline with Tween-80
[9] = endpoint: mean survival time, dose: 200.0 mg/kg/injection, schedule: Q04DX003 (ip), vehicle: saline with Tween-80

O=C(O)C(CSC(c1ccccc1)(c1ccccc1)c1ccccc1)NC(c1ccccc1)c1ccccc1 (configuration not stated)
T/C [1]: 101 % of control | T/C (endpoint: mean survival time, dose: 100.0 mg/kg/injection, schedule: Q01DX009 (ip), vehicle: saline): 98 % of control | T/C (endpoint: mean survival time, dose: 200.0 mg/kg/injection, schedule: Q01DX009 (ip), vehicle: saline): 101 % of control | T/C (endpoint: mean survival time, dose: 400.0 mg/kg/injection, schedule: Q01DX009 (ip), vehicle: saline): 101 % of control

Nc1ccn(C2OC(COC(=O)C34CC5CC(CC(C5)C3)C4)C(O)C2O)c(=O)n1 (configuration not stated)
T/C (endpoint: mean survival time, dose: 12.5 mg/kg/injection, schedule: Q01DX009 (ip), vehicle: other): 201 % of control | T/C (endpoint: mean survival time, dose: 25.0 mg/kg/injection, schedule: Q01DX009 (ip), vehicle: other): 282 % of control | T/C (endpoint: mean survival time, dose: 50.0 mg/kg/injection, schedule: Q01DX009 (ip), vehicle: other): 365 % of control | T/C (endpoint: mean survival time, dose: 100.0 mg/kg/injection, schedule: Q01DX009 (ip), vehicle: other): 253 % of control

O=C(O)C(=O)Cc1cccc(Cl)c1[N+](=O)[O-]
T/C (endpoint: mean survival time, dose: 37.5 mg/kg/injection, schedule: Q01DX009 (ip), vehicle: saline): 97 % of control | T/C (endpoint: mean survival time, dose: 75.0 mg/kg/injection, schedule: Q01DX009 (ip), vehicle: saline): 103 % of control | T/C (endpoint: mean survival time, dose: 150.0 mg/kg/injection, schedule: Q01DX009 (ip), vehicle: saline): 97 % of control

O=C(NNc1ccccc1)C(F)(F)F
T/C (endpoint: mean survival time, dose: 25.0 mg/kg/injection, schedule: Q01DX009 (ip), vehicle: saline with Tween-80): 107 % of control | T/C (endpoint: mean survival time, dose: 50.0 mg/kg/injection, schedule: Q01DX009 (ip), vehicle: saline with Tween-80): 101 % of control | T/C (endpoint: mean survival time, dose: 100.0 mg/kg/injection, schedule: Q04DX003 (ip), vehicle: acetone): 93 % of control

CCCCCC/C=N/[N+](C)(C)C
T/C [2]: 114 % of control | T/C [3]: 101 % of control | T/C [1]: 101 % of control and 107 % of control

CS(=O)(=O)c1nc2ccccc2s1
T/C [4]: 103 % of control | T/C [5]: 91 % of control

N#CCC(O)(/C=C/c1ccccc1)c1ccccc1 (configuration not stated)
T/C [4]: 95 % of control | T/C [6]: 97 % of control | T/C [5]: 91 % of control | T/C [7]: 89 % of control | T/C [8]: 88 % of control

Cc1cccc(Cl)c1NC(=O)C(C)C
T/C (endpoint: mean survival time, dose: 100.0 mg/kg/injection, schedule: Q04DX003 (ip), vehicle: other): 94 % of control | T/C (endpoint: mean survival time, dose: 200.0 mg/kg/injection, schedule: Q04DX003 (ip), vehicle: other): 91 % of control | T/C (endpoint: mean survival time, dose: 400.0 mg/kg/injection, schedule: Q04DX003 (ip), vehicle: other): 87 % of control

CCCCCCCCCCCC(C)CC(CN)C(=O)OCC (configuration not stated)
T/C (endpoint: mean survival time, dose: 100.0 mg/kg/injection, schedule: Q04DX002 (ip), vehicle: saline): 92 % of control | T/C (endpoint: mean survival time, dose: 200.0 mg/kg/injection, schedule: Q04DX002 (ip), vehicle: saline): 100 % of control | T/C (endpoint: mean survival time, dose: 400.0 mg/kg/injection, schedule: Q04DX002 (ip), vehicle: saline): 100 % of control

CC(C)CC(Br)C(=O)NCC(=O)NC(Cc1ccccc1)C(=O)O (configuration not stated)
T/C [6]: 106 % of control | T/C [9]: 97 % of control | T/C [8]: 96 % of control

CCC(C)[Se][Se]C(C)CC (configuration not stated)
T/C (endpoint: mean survival time, dose: 25.0 mg/kg/injection, schedule: Q04DX003 (ip), vehicle: saline with Tween-80): 93 % of control

CC1CCC2(OC1)OC1C(O)C3C4CCC5CC(OC6OC(CO)C(OC7OC(CO)C(O)C(OC8OCC(O)C(O)C8O)C7OC7OC(CO)C(O)C(OC8OC(CO)C(O)C(O)C8O)C7O)C(O)C6O)C(O)CC5(C)C4CCC3(C)C1C2C (configuration not stated)
T/C (endpoint: mean survival time, dose: 5.0 mg/kg/injection, schedule: Q01DX009 (ip), vehicle: saline): 92 % of control | T/C (endpoint: mean survival time, dose: 6.25 mg/kg/injection, schedule: Q01DX001 (ip), vehicle: saline with Tween-80): 96 % of control | T/C (endpoint: mean survival time, dose: 10.0 mg/kg/injection, schedule: Q01DX009 (ip), vehicle: saline): 93 % of control | T/C (endpoint: mean survival time, dose: 12.5 mg/kg/injection, schedule: Q01DX001 (ip), vehicle: saline with Tween-80): 103 % of control | T/C (endpoint: mean survival time, dose: 20.0 mg/kg/injection, schedule: Q01DX009 (ip), vehicle: saline): 96 % of control | T/C (endpoint: mean survival time, dose: 25.0 mg/kg/injection, schedule: Q01DX001 (ip), vehicle: saline with Tween-80): 100 % of control | T/C (endpoint: mean survival time, dose: 40.0 mg/kg/injection, schedule: Q01DX009 (ip), vehicle: saline): 102 % of control

Cc1cc2nc3ccc(=[N+](C)C)cc-3sc2cc1N
T/C (endpoint: mean survival time, dose: 25.0 mg/kg/injection, schedule: Q04DX003 (ip), vehicle: saline): 109 % of control | T/C (endpoint: mean survival time, dose: 50.0 mg/kg/injection, schedule: Q04DX003 (ip), vehicle: saline): 102 % of control

COc1ccc2c(c1)N(CC(C)C[N+](C)(C)CCCCCCCCCC[N+](C)(C)CC(C)CN1c3ccccc3Sc3ccc(OC)cc31)c1ccccc1S2 (configuration not stated)
T/C (endpoint: mean survival time, dose: 6.25 mg/kg/injection, schedule: Q01DX009 (ip), vehicle: saline): 100 % of control | T/C [2]: 92 % of control | T/C [3]: 106 % of control

Cc1c(C)c([N+](=O)[O-])c(Br)c(C)c1[N+](=O)[O-]
T/C [4]: 103 % of control | T/C [6]: 95 % of control | T/C [5]: 97 % of control | T/C [9]: 88 % of control | T/C [7]: 101 % of control | T/C [8]: 87 % of control

CCC(C)C1NC(=O)C(NC(=O)c2c3nc4c(C(=O)NC5C(=O)NC(C(C)CC)C(=O)N6CCCC6C(=O)N(C)CC(=O)N(C)C(C(C)C)C(=O)OC5C)ccc(C)c4oc-3c(C)c(=O)c2N)C(C)OC(=O)C(C(C)C)N(C)C(=O)CN(C)C(=O)C2CCCN2C1=O (configuration not stated) (I: TIP[Sar][NMeV] / II: TIP[Sar][NMeV]; ester I:1-I:C, II:1-II:C; linker I:N-II:N via Actinocin(1to9); configuration not given here)
T/C (endpoint: mean survival time, dose: 0.25 mg/kg/injection, schedule: Q01DX001 (ip), vehicle: saline): 112 % of control | T/C (endpoint: mean survival time, dose: 0.5 mg/kg/injection, schedule: Q01DX001 (ip), vehicle: saline): 120 % of control

CCCCCCCCCCCCCC(=O)N1CCOCC1
T/C [4]: 96 % of control | T/C [6]: 97 % of control | T/C [5]: 96 % of control | T/C [9]: 95 % of control | T/C [7]: 100 % of control | T/C [8]: 97 % of control

Cc1ccc(S(=O)(=O)OC2CCCCC2c2ccc(C(F)(F)F)cc2)cc1 (configuration not stated)
T/C (endpoint: mean survival time, dose: 75.0 mg/kg/injection, schedule: Q01DX001 (ip), vehicle: other): 96 % of control | T/C (endpoint: mean survival time, dose: 150.0 mg/kg/injection, schedule: Q01DX001 (ip), vehicle: other): 88 % of control | T/C (endpoint: mean survival time, dose: 300.0 mg/kg/injection, schedule: Q01DX001 (ip), vehicle: other): 88 % of control

Cc1c[nH]c(=O)n(CC(=O)C2CCC3C4CCC5=CC(=O)CCC5(C)C4CCC23C)c1=O (configuration not stated)
T/C (endpoint: mean survival time, dose: 12.5 mg/kg/injection, schedule: Q04DX003 (ip), vehicle: Klucel (hydroxypropylcellulose) (HPC)): 95 % of control | T/C (endpoint: mean survival time, dose: 25.0 mg/kg/injection, schedule: Q04DX003 (ip), vehicle: Klucel (hydroxypropylcellulose) (HPC)): 95 % of control | T/C (endpoint: mean survival time, dose: 50.0 mg/kg/injection, schedule: Q04DX003 (ip), vehicle: Klucel (hydroxypropylcellulose) (HPC)): 97 % of control | T/C (endpoint: mean survival time, dose: 100.0 mg/kg/injection, schedule: Q04DX003 (ip), vehicle: Klucel (hydroxypropylcellulose) (HPC)): 98 % of control | T/C (endpoint: mean survival time, dose: 200.0 mg/kg/injection, schedule: Q04DX003 (ip), vehicle: Klucel (hydroxypropylcellulose) (HPC)): 98 % of control

Nc1cc2n[nH]nc2c(=O)[nH]1
T/C (endpoint: median survival time, dose: 50.0 mg/kg/injection, schedule: Q01DX005 (ip), vehicle: saline with Tween-80): 107 % of control | T/C (endpoint: median survival time, dose: 100.0 mg/kg/injection, schedule: Q01DX005 (ip), vehicle: saline with Tween-80): 101 % of control | T/C (endpoint: median survival time, dose: 200.0 mg/kg/injection, schedule: Q01DX005 (ip), vehicle: saline with Tween-80): 100 % of control

CN(C)c1ccc(/C=C(\C#N)c2ccc([N+](=O)[O-])cc2)c(Cl)c1
T/C [4]: 97 % of control | T/C [5]: 97 % of control | T/C [7]: 92 % of control

O=C1SCCC1NP(=O)(Oc1ccccc1)Oc1ccccc1 (configuration not stated)
T/C [4]: 93 % of control | T/C [5]: 103 % of control | T/C [7]: 93 % of control

COC(=O)Cc1cc(O)c(C(=O)OC)c(O)c1C(=O)OC
T/C (endpoint: mean survival time, dose: 100.0 mg/kg/injection, schedule: Q01DX001 (ip), vehicle: saline with Tween-80): 103 % of control | T/C (endpoint: mean survival time, dose: 200.0 mg/kg/injection, schedule: Q01DX001 (ip), vehicle: saline with Tween-80): 98 % of control | T/C (endpoint: mean survival time, dose: 400.0 mg/kg/injection, schedule: Q01DX001 (ip), vehicle: saline with Tween-80): 98 % of control

N#CC(OC1OC(COC2OC(CO)C(O)C(O)C2O)C(O)C(O)C1O)c1ccccc1 (configuration not stated)
T/C (endpoint: mean survival time, dose: 12.5 mg/kg/injection, schedule: Q01DX009 (ip), vehicle: water): 94 % of control | T/C (endpoint: mean survival time, dose: 25.0 mg/kg/injection, schedule: Q01DX009 (ip), vehicle: water): 88 % of control and 104 % of control | T/C (endpoint: mean survival time, dose: 50.0 mg/kg/injection, schedule: Q01DX009 (ip), vehicle: water): 98 % of control and 102 % of control | T/C (endpoint: mean survival time, dose: 100.0 mg/kg/injection, schedule: Q01DX009 (ip), vehicle: water): 94 % of control and 96 % of control | T/C (endpoint: mean survival time, dose: 200.0 mg/kg/injection, schedule: Q01DX009 (ip), vehicle: water): 91 % of control and 102 % of control | T/C (endpoint: mean survival time, dose: 400.0 mg/kg/injection, schedule: Q01DX009 (ip), vehicle: water): 95 % of control and 97 % of control | T/C (endpoint: mean survival time, dose: 800.0 mg/kg/injection, schedule: Q01DX009 (ip), vehicle: water): 93 % of control and 100 % of control
